Legend:
Type in all cases: cell-based
[1] = system: normal murine embryonic fibroblasts (BALB/3T3); assay: In vitro cytotoxicity against normal cells (SRB), BALB/3T3; conditions: BALB/3T3; for IC50: Mus musculus, BALB3T3 normal cell line, 72 h exposure, SRB, mean ± SD, read-out: Antiproliferative activity IC50
Text: (§1) The following established in vitro cell lines were applied: human breast adenocarcinoma (MCF-7 and SK-BR-3), human breast ductal carcinoma (T47D), human prostate adenocarcinoma (PC-3), human prostate carcinoma (Du145), human colorectal adenocarcinoma (HT-29 and LoVo), doxorubicin-resistant human colorectal adenocarcinoma (LoVo/Dx), human myelomonocytic leukemia (MV-4-11), human lung adenocarcinoma (A549), normal murine embryonic fibroblasts (BALB/3T3) and human lung microvascular endothelial (HLMEC). All the cell lines were obtained from the American Type Culture Collection (Rockville, MD, USA) except for LoVo and LoVo/DX, which were received from the Technical University of Gdańsk, Poland, courtesy of Prof. E. Borowski. All the cell lines were maintained in the Institute of Immunology and Experimental Therapy, Wroclaw, Poland. The cells were cultured in the following media: DMEM medium (BALB/3T3), Eagle medium (MCF-7, SK-BR-3, Du145), RPMI medium (HLMEC, MV-4-11) or RPMI 1640 + Opti-MEM (1:1) medium (A549, T47D, LoVo, LoVo/Dx, PC-3, HT-29). The DMEM medium was supplemented with 2 mM L-glutamine and 10% fetal bovine serum. The Eagle medium was supplemented with 4 mM L-glutamine, 10% fetal bovine serum, 1 mM sodium pyruvate for Du145 cells or 2 mM L-glutamine, 1% amino acids and 0.8 mg L^−1 of insulin for MCF-7 and SK-BR-3. The RPMI medium was supplemented with 2 mM L-glutamine, 1 mM sodium pyruvate and 10% fetal bovine serum. The RPMI 1640 + Opti-MEM (1:1) medium was supplemented with 2 mM L-glutamine, 5% fetal bovine serum (PC-3, A549) and 0.8 mg L^−1 insulin (T47D) or 1 mM sodium pyruvate (HT-29, LoVo, LoVoDx) and 0.1 ug/mL doxorubicin (LoVo/Dx). The media contained antibiotics: 100 µg mL^−1 streptomycin and 100 U mL^−1 penicillin. All the cell lines were incubated at 37 °C in a humid atmosphere saturated with 5% CO2.
(§2) The details of this technique were described by Skehan et al.. […] The unbound dye was removed by washing the plates five times with 1% acetic acid, whereas the stain bound to the cells was extracted with 150 µL of 10 mM unbuffered Tris base for determination of the optical density at a 540 nm wavelength in a computer-interfaced, 96-well microtiter plate reader–Multiskan FC photometer (Thermo Scientific, Waltham, MA, USA). The background optical density was measured in the wells filled with culture medium, without the cells.
(§3) Twenty-four hours before incubation with the tested compounds, the cells were seeded in 96-well plates (Sarstedt, Nümbrecht, Germany) at a density of 10^4 cells per well (10^3 cells per well for HLMEC) in 100 µL of culture medium. […] The results were calculated as the IC50 (μM) (half maximal inhibitory concentration), i.e., the concentration of the tested agent that inhibits the proliferation of the cancer cell population by half. […]

[2] = system: LoVo/Dx doxorubicin-resistant human colorectal adenocarcinoma cells; assay: In vitro antiproliferative assay (SRB), LoVo/Dx; conditions: for IC50: Homo sapiens, LoVo/Dx, 72 h exposure, SRB, mean ± SD; for Calculated selectivity index SIB: IC50 BALB/3T3/IC50 LoVo/Dx; for Calculated selectivity index SIA: IC50 HLMEC/IC50 LoVo/Dx
Text: as §1
(§4) The details of this technique were described by Skehan et al.. After 72 h of incubation with the tested compounds, the cells were fixed in situ by gently adding cold 50% trichloroacetic acid—TCA (50 µL per well). The plates were incubated at 4 °C for 1 h and then washed five times with tap water and air-dried. Next, the cellular material fixed with TCA was stained by adding 50 µL of 0.4% sulforhodamine B dissolved in 1% acetic acid to each well and incubating the wells for 30 min at room temperature. The unbound dye was removed by washing the plates five times with 1% acetic acid, whereas the stain bound to the cells was extracted with 150 µL of 10 mM unbuffered Tris base for determination of the optical density at a 540 nm wavelength in a computer-interfaced, 96-well microtiter plate reader–Multiskan FC photometer (Thermo Scientific, Waltham, MA, USA). The background optical density was measured in the wells filled with culture medium, without the cells.
(§5) Twenty-four hours before incubation with the tested compounds, the cells were seeded in 96-well plates (Sarstedt, Nümbrecht, Germany) at a density of 10^4 cells per well (10^3 cells per well for HLMEC) in 100 µL of culture medium. The analysis of the antiproliferative activity of the compounds was performed using sulforhothamine B (SRB) (for all the adherent cells) or 3-(4,5-dimethylthiazol-2-yl)-2,5-diphenyl tetrazolium bromide (MTT) (for the leukemia cells—MV-4-11). The details of this technique have been previously described by Skehan et al. and Antoszak et al.. An assay was performed after 72 h of exposure at varying concentrations (from 0.1 to 100 µg mL^−1) of xanthohumol (1), aurone (2) and the reference drug cisplatin. Each compound at each concentration was tested in a single experiment, which was repeated at least 3 times. […] The results were calculated as the IC50 (μM) (half maximal inhibitory concentration), i.e., the concentration of the tested agent that inhibits the proliferation of the cancer cell population by half. […]

[3] = system: A549 human lung adenocarcinoma cells; assay: In vitro antiproliferative assay (SRB), A549; conditions: for IC50: Homo sapiens, A549, 72 h exposure, SRB, mean ± SD; for Calculated selectivity index SIB: IC50 BALB/3T3/IC50 A549; for Calculated selectivity index SIA: IC50 HLMEC/IC50 A549
Text: as §1, §4, §5

[4] = system: human lung microvascular endothelial (HLMEC) cells; assay: In vitro cytotoxicity against normal cells (SRB), HLMEC; conditions: for IC50: Homo sapiens, HLMEC normal cell line, 72 h exposure, SRB, mean ± SD, read-out: Antiproliferative activity IC50
Text: as §1, §2, §3

[5] = system: PC-3 human prostate adenocarcinoma cells; assay: In vitro antiproliferative assay (SRB), PC-3; conditions: for IC50: Homo sapiens, PC-3, 72 h exposure, SRB, mean ± SD; for Calculated selectivity index SIB: IC50 BALB/3T3/IC50 PC-3; for Calculated selectivity index SIA: IC50 HLMEC/IC50 PC-3
Text: as §1, §4, §5

IC50 [2] [µM]	IC50 [3] [µM]	IC50 [5] [µM]	Structure (SMILES)	reduction of cytotoxic effect against normal cells relative to xanthohumol (1) ([1]; p < 0.05) [fold]	IC50 [1] [µM]	Calculated selectivity index SIB [2]	Calculated selectivity index SIB ([2]; listed as aurone (2))	Calculated selectivity index SIA [2]	Calculated selectivity index SIB [3]	Calculated selectivity index SIA [3]	reduction of cytotoxic effect against normal cells relative to xanthohumol (1) ([4]; HLMEC, p < 0.05) [fold]	IC50 [4] [µM]	Calculated selectivity index SIB [5]	Calculated selectivity index SIA [5]
7.83 ± 2.82	16.6 ± 3.29	19.1 ± 9.27	COc1cc(O)c(CC=C(C)C)c2c1C(=O)/C(=C/c1ccc(O)cc1)O2 [compound 2, (Z)-6,4′-dihydroxy-4-methoxy-7-prenylaurone]	2.3	44.5 ± 5.16	5.68	5.97	6.75	2.68	3.18	1.5	52.8 ± 8.03	2.33	2.77
7.28 ± 1.22	10 ± 0.71	9.15 ± 0.88	COc1cc(O)c(CC=C(C)C)c(O)c1C(=O)/C=C/c1ccc(O)cc1 [compound 1, 3′-[3″,3″-dimethylallyl]-2′,4′,4-trihydroxy-6′-methoxychalcone]	–	19.6 ± 2.95	2.70	–	4.99	1.96	3.62	–	36.3 ± 6.7	2.14	3.97
